Results from patent publication EP0835125B1, “CD4-DERIVED PEPTIDES THAT INHIBIT IMMUNE RESPONSES” (THOMAS JEFFERSON UNIVERSITY, priority 1995, dated 2004).
Where “and” joins values, the source holds several entries; their conditions need not be identical. Identical values can stand only once. Like-named read-outs stand apart in the source and are kept apart here. Bridge positions count the residues as written; N and C are the ends. Peptide text beside a SMILES is read from it.

Legend:
[1] = system: interaction of CD4 and MHC, class II; experiment: Rosetting of Cr51-labelled Raji cells to stably T4-pMV7-transfected COS-1 cells; format: cell-based, human; details: 200 µM
From the text: In a second construct, the T4-pMV7 plasmid, which contains a Tn5 neo selectable marker, was introduced into Cos-1 cells by electroporation. Stably transfected cells were isolated by selection with G-418 and the resultant transformants expressed CD4.
Raji cells were labelled with Cr^51 and rosetted to the stably T4-pMV7-transfected COS-1 cells.

[2] = system: responder cell alloreactive proliferation (human T cell); details: for inhibition (suppressive effect on human T cell activation): 3 h, 100 µM; for activity in human MLR / human T cell proliferation in vitro, in words: in b95 the words describe the cyclic peptide relative to the linear peptides KNSNQI, KNSNQ, NSNQI (linear ones less active)
Experimental: For this assay, fresh peripheral blood lymphocytes from two different donors are co-cultured; the cells of one donor were irradiated and served as stimulators. Proliferation of these activated T cells was measured by measuring the incorporation of ^3H-thymidine at various timepoints.
For human MLR, 50 ml of whole blood was collected into anti-coagulant (ACD, acid citrate dextrose) containing tubes. In 50 ml conical tubes, 20 ml of blood was layered over 20 ml Ficoll 1077 (Sigma Chemical Co., St. Louis, MO) and centrifuged at 2000 rpm for 35-40 min at 15-20°C. Buffy coats and serum were collected in 3x volume of PBS centrifuged at 1500 rpm for 15 min at 15-20°C. Supernatants were discarded, cells were washed 2x in 50 ml PBS and resuspended in RPMI supplemented with 10% heat-inactivated (56°, 30 min) human serum (cat# H4522, Sigma), 50 IU/ml pen/strep and 2mM (1% of 200 mM stock) L-glutamine (both from BioWhitaker). Lymphocyte yield varied between 5-8x10^7.
In a 96-well flat bottom plate 1 x 10^5 responders were plated with 2 x 10^5 irradiated (3000 rad) simulators/well (added in 100 µl each), and incubated for 6, 7 or 8 days at 37°C, 7% CO2. Peptide analogues were added to quadruplicate wells, at a concentration of 100 µM (5 mg/ml stock) or titrations thereof, immediately after cells were plated. For radiolabelling, the cells were incubated with 1 µCi [^3H]TdR/well (25 µl) (diluted from 1mCi/ml stock, Amersham) for the final 6 hours of incubation. Cells were harvested using a fiberfilter cell harvester (e.g., Harvester 96, Tomtec) and counted in a Beta Counter of Beta plate reader (1205 BS Betaplate Liquid Scintillation Counter, Wallac) with scintillation fluid.

[3] = system: interaction of CD4 and MHC, class II; experiment: Rosetting of Raji cells and CD4-transiently transfected COS-7 cells, microscopic count; format: cell-based, human; details: 200 µM, three independent assays
Experimental: The cyclic peptide CNSNQIC (SEQ ID NO:45) at 200 µM was tested to determine if the peptide inhibited the interaction of CD4 and MHC, class II. The test was performed by rosetting Raji cells and CD4-transiently transfected COS-7 cells. See: Moebius, U. et al., 1992, Proc. Natl. Acad. Sci. 89:12008-12; Moebius, U., et al., 1993, Proc. Natl. Acad. Sci. 90:8259-63.
The sequence of human CD4 cDNA is given in Maddon, P.J. et al., 1985, CELL 42:93-104, which sequence is hereby incorporated by reference. […]
For transfection of COS-7 cells, a CD4-expression plasmid T4-pcDNA3, was constructed by subcloning the 3.0 Kb Eco R1 fragment of T4-pMV7 into the EcoRI site of the mammalian expression vector pcDNA3 (INVITROGEN). […] Rosette formation between Raji cells and transfected COS-7 cells was scored microscopically at 100-fold magnification. The number of rosette containing more than five Raji cells was counted in 10 random optical fields in each individual well; 300-400 rosettes per well were counted as the positive control for rosette formation without any inhibition in the absence of any chemicals. The inhibition activity for rosette formation for each chemical was determined by the ratio of the number of rosettes obtained in the presence of this chemical to the number of rosettes in the positive control. […]

[4] = system: EAE; experiment: EAE inhibition in vivo, SJL EAE model, daily severity score on 0-5 scale; parameters: species or system mice; details: for effect on EAE in mice, in words: b73: 0.5 mg dose i.v. 12 days after immunization
Experimental: The C-C' loop peptides were initially tested for efficacy in the SJL EAE model. In untreated animals, a high incidence of disease was observed 15-22 days after two s.c. inoculations of 1 mg of crude murine spinal cord homogenate in complete Freund's adjuvant. The severity of the disease was scored daily using the established 0-5 scale that describes the level of ascending paresis, Korngold, R., et al., 1986, Immunogenetics 24:309-315. The level of the mean EAE severity grade of mice for the untreated control group reached a maximum of 2.0. […] Also shown are the results of groups of mice that received the rD-mPGPtide, a mimic of residues 86-104 of murine homolog of CD4, which was described in Jameson et al. 1994, Nature 368:744-746.

[5] = biological target: MHC, class II, gene products on Raji cells (human); experiment: rosette assay, Cr51-labelled Raji cells (MHC class II) on stably T4-pMV7-transfected COS-1 cells (CD4), peptide at 200 uM
[6] = biological target: MHC, class II, gene products on Raji cells (human); experiment: rosette assay, Raji cells (MHC class II) on CD4-transiently transfected COS-7 cells, peptide at 200 uM, blocks CD4/MHC class II interaction; independent assay 2 of 3
[7] = biological target: MHC, class II, gene products on Raji cells (human); experiment: rosette assay, Raji cells (MHC class II) on CD4-transiently transfected COS-7 cells, peptide at 200 uM, blocks CD4/MHC class II interaction; independent assay 3 of 3
[8] = biological target: MHC, class II, gene products on Raji cells (human); experiment: rosette assay, Raji cells (MHC class II) on CD4-transiently transfected COS-7 cells, peptide at 200 uM, blocks CD4/MHC class II interaction; independent assay 1 of 3
[9] = listed as CNSNQIC (SEQ ID NO:44)

| Compound | inhibition of rosetting [1] | inhibition (suppressive effect on human T cell activation) [2] | activity in human MLR / human T cell proliferation in vitro, in words [2] | activity in human MLR / human T cell proliferation in vitro, in words [2, 9] | inhibition of the rosettes [3] | maximum severity level (mean EAE severity grade) ([4]; 0.5 mg i.v. on day 12, 0-5 scale, untreated control group maximum 2.0) | effect on EAE in mice, in words [4] | effect on EAE in mice, in words [4, 9] | percent inhibition of rosetting [5] | percent inhibition of rosettes [6] | percent inhibition of rosettes [7] | percent inhibition of rosettes [8] |
| --- | --- | --- | --- | --- | --- | --- | --- | --- | --- | --- | --- | --- |
| CC[C@H](C)[C@@H]1NC(=O)[C@H](CCC(N)=O)NC(=O)[C@H](CC(N)=O)NC(=O)[C@H](CO)NC(=O)[C@H](CC(N)=O)NC(=O)[C@@H](N)CSSC[C@@H](C(=O)O)NC1=O [CNSNQIC (SEQ ID NO:45), CNSNQIC] (H-CNSNQIC-OH; disulfide 1-7 (inferred); N-terminus and C-terminus assumed) | greater than 75% | 54.4% | significantly higher activity than the linear peptides | highly potent inhibitor of human T cell proliferation | 57% and 63% and 51% | 1.0 | effective to ameliorate EAE | inhibitor of EAE in mice | – | – | – | – |
| CC[C@H](C)[C@H](NC(=O)[C@H](CCC(N)=O)NC(=O)[C@H](CC(N)=O)NC(=O)[C@H](CO)NC(=O)[C@H](CC(N)=O)NC(=O)[C@@H](N)CS)C(=O)N[C@@H](CS)C(=O)O [linear CNSNQIC, CNSNQIC] (H-CNSNQIC-OH) | – | 32.2% | – | – | – | – | – | – | – | – | – | – |
| cyclic peptide CNSNQIC (SEQ ID NO:45) | – | – | – | – | – | – | – | – | > 75% | 63% | 51% | 57% |
